Data from US10059689B2, “Substituted heteroaryl compounds and methods of use” (Sunshine Lake Pharma Co., Ltd., priority 2014, dated 2018).
pIC50: −log10 of the molar value.

Assays:
[1] = target: T1, FLT3 (h) (Homo sapiens, UniProt P36888); assay: FLT3 (h) kinase assay; type: biochemical
T1 construct: purchased Millipore UK Ltd (contract assay service)
T1 sequence (P36888 27-993): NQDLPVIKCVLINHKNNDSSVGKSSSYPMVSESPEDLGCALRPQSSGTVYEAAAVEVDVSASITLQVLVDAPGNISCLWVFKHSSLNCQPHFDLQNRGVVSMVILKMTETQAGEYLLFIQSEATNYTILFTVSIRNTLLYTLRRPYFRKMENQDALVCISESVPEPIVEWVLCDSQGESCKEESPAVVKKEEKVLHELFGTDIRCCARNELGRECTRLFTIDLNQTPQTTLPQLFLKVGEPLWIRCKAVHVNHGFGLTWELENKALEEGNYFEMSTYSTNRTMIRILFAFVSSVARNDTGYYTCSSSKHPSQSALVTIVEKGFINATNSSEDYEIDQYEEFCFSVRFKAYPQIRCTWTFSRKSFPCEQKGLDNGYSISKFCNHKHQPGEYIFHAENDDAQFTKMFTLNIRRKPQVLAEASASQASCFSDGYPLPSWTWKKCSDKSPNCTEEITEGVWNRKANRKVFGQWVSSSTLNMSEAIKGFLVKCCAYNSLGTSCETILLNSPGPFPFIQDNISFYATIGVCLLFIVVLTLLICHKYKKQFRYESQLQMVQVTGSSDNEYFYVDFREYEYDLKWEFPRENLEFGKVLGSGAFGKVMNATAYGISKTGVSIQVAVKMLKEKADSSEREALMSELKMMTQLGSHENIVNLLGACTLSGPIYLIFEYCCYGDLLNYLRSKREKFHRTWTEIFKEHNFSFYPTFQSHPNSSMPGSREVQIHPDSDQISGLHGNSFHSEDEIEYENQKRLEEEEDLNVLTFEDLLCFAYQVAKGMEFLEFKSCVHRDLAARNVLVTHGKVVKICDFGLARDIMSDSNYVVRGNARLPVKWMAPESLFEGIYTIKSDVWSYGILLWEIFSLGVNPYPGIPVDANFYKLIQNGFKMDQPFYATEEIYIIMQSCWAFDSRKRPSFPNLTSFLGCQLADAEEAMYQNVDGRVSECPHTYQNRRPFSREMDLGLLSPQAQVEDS
Procedure: (§1) Kinase assays can be performed by measurement of incorporation of γ-33P ATP into immobilized myelin basic protein (MBP). High binding white 384 well plates (Greiner) are coated with MBP (Sigma #M-1891) by incubation of 60 μL/well of 20 μg/mL MBP in Tris-buffered saline (TBS; 50 mM Tris pH 8.0, 138 mM NaCl, 2.7 mM KCl) for 24 h at 4° C. Plates are washed 3× with 100 μL TBS. Kinase reactions are carried out in a total volume of 34 μL in kinase buffer (according to the need to make, for example, 5 mM Hepes pH 7.6, 15 mM NaCl, 0.01% bovine gamma globulin (Sigma #I-5506), 10 mM MgCl2, 1 mM DTT, 0.02% TritonX-100). Compound dilutions are performed in DMSO and added to assay wells to a final DMSO concentration of 1%. Each data point is measured in duplicate, and at least two duplicate assays are performed for each individual compound determination. Enzyme is added to final concentrations of 10 nM or 20 nM, for example. A mixture of unlabeled ATP and γ-33P ATP is added to start the reaction (2×10^6 cpm of γ-33P ATP per well (3000 Ci/mmole) and 10 μM unlabeled ATP, typically. The reactions are carried out for 1 h at room temperature with shaking Plates are washed 7× with TBS, followed by the addition of 50 μL/well scintillation fluid (Wallac). Plates are read using a Wallac Trilux counter. This is only one format of such assays; various other formats are possible, as known to one skilled in the art.
(§2) The above assay procedure can be used to determine the IC50 for inhibition and/or the inhibition constant, Ki. The IC50 is defined as the concentration of compound required to reduce the enzyme activity by 50% under the condition of the assay. The IC50 value is estimated by preparing a 10 point curve using a ½ log dilution series (for example, a typical curve may be prepared using the following compound concentrations: 3 μM, 1 μM, 0.3 μM, 0.1 μM, 0.03 μM, 0.01 μM, 0.003 μM, 0.001 μM, 0.0003 μM and 0 μM).
FLT3 (h) is incubated with 8 mM MOPS pH 7.0, 0.2 mM EDTA, 50 μM EAIYAAPFAKKK, 10 mM MgAcetate and [γ-^33P-ATP] (specific activity approx. 500 cpm/pmol, concentration as required). The reaction is initiated by the addition of the MgATP mix. After incubation for 40 minutes at room temperature, the reaction is stopped by the addition of 3% phosphoric acid solution. 10 μL of the reaction is then spotted onto a P30 filtermat and washed three times for 5 minutes in 75 mM phosphoric acid and once in methanol prior to drying and scintillation counting.
The kinase assays described herein were performed at Millipore UK Ltd, Dundee Technology Park, Dundee DD2 1SW, UK.

[2] = target: T2, Aurora-A (h) (Homo sapiens, UniProt O14965); assay: Aurora-A (h) kinase assay; type: biochemical
T2 construct: purchased Millipore UK Ltd (contract assay service)
T2 sequence (O14965 1-403): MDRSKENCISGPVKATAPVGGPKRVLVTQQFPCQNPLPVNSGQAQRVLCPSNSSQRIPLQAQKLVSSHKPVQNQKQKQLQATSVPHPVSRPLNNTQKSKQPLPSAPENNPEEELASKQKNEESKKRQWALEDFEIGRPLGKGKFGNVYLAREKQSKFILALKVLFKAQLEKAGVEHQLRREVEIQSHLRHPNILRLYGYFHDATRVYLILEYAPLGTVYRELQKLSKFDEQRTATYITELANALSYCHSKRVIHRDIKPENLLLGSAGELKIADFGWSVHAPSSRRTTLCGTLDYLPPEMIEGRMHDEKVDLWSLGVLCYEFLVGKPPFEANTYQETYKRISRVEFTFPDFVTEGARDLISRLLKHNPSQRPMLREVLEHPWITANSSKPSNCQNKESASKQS
Procedure: as §1, §2
Aurora-A (h) is incubated with 8 mM MOPS pH 7.0, 0.2 mM EDTA, 200 μM LRRASLG (Kemptide), 10 mM MgAcetate and [γ-^33P-ATP] […]

pIC50 [1] | pIC50 [2] | Structure (SMILES)
7.38 | 7.18 | CN(c1nc(Nc2cnn(C)c2)ncc1Cl)C1CCN(c2ccc(C#N)cn2)CC1 [Ex. 5, 6-(4-((5-chloro-2-((1-methyl-1H-pyrazol-4-yl)amino)pyrimidin-4-yl) (methyl)amino)piperidin-1-yl)nicotinonitrile]
7.32 | – | Cc1cc(Nc2ncc(Cl)c(NC3CCN(c4ccc(C#N)nn4)CC3)n2)nn1C [Ex. 13, 6-(4-((5-chloro-2-((1,5-dimethyl-1H-pyrazol-3-yl)amino)pyrimidin-4-yl)amino)piperidin-1-yl)pyridazine-3-carbonitrile]
6.82 | 6.30 | Cc1c2ccc(Nc3ncc(Cl)c(NC4CCN(c5ccc(C#N)cn5)CC4)n3)cc2nn1C [Ex. 4]
7.68 | – | Cc1nn(C)cc1Nc1ncc(Cl)c(NC2CCN(c3ccc(C#N)nn3)CC2)n1 [Ex. 11, 6-(4-((5-chloro-2-((1,3-dimethyl-1H-pyrazol-4-yl)amino)pyrimidin-4-yl)amino)piperidin-1-yl)pyridazine-3-carbonitrile]
8.05 | – | Cc1nn(C)cc1Nc1ncc(Cl)c(NC2CCN(c3ccc(C#N)cn3)CC2)n1 [Ex. 10, 6-(4-((5-chloro-2-((1,3-dimethyl-1H-pyrazol-4-yl)amino)pyrimidin-4-yl)amino)piperidin-1-yl)nicotinonitrile]
8.40 | – | Cc1c2ccc(Nc3ncc(Cl)c(NC4CCN(c5ccc(C#N)nn5)CC4)n3)cc2nn1C [Ex. 12, 6-(4-((5-chloro-2-((2,3-dimethyl-2H-indazol-6-yl)amino)pyrimidin-4-yl)amino)piperidin-1-yl)pyridazine-3-carbonitrile]
8.22 | 7.17 | Cn1cc(Nc2ncc(Cl)c(NC3CCN(c4ccc(C#N)cn4)CC3)n2)cn1 [Ex. 1, 6-(4-((5-chloro-2-((1-methyl-1H-pyrazol-4-yl)amino)pyrimidin-4-yl)amino)piperidin-1-yl)nicotinonitrile]
